Laboratory results taken from patent US20140213538A1, “LYSOPHOSPHATIDIC ACID RECEPTOR ANTAGONISTS” (InterMune, Inc., priority 2013, published 2014).

Experiments:
LPA1 = LPA1 (Homo sapiens, UniProt Q92633); experiment: LPA1 Migration Assay (Oris); format: cell-based; set-up: host or cells: primary fibroblasts (lung, dermal), HFL-1, 3T3 and CHO cells expressing LPA1R; details: read-out: Cell Migration EC50
Description: LPA1 Migration Assay Migration of primary fibroblasts (including lung, dermal), HFL-1, 3T3 and CHO cells expressing LPA1R were monitored using the Oris™ assay (Platypus Technologies, Madison, Wis.). These cells were dye (Cell Tracker Green™) loaded and serum starved for 12-24 hrs. In response to chemoattractants such as LPA and serum, the cells migrated inward in to the exclusion (detection) zone. After fixing, fluorescent cells in the detection zone were counted using a high content reader. The ability of LPA1 antagonists to inhibit cell migration is quantified by plotting cell number vs. compound concentration and curve fitting the resulting dose-response curve to a 4 parameter logistic function.

LPA/S1P GPCR of interest = biological target: T1, LPA/S1P GPCR of interest (Homo sapiens, UniProt Q92633); experiment: Beta-Arrestin based assay (PathHunter); format: cell-based
T1 construct: host or cells: CHO
Outline: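 EA Parental CHO cells (DiscoverX) were transfected with FuGENE (Roche) using CMV promoter-driven DNA constructs encoding the LPA/S1P GPCR of interest fused to a ProLink tag. Beta-arrestin recruitment in agonist mode was assessed 24-48 hrs later with PathHunter kits. Tests ran in quadruplicate in white 384 well plates, and end point luminescence was fit to a 4 parameter logistic function.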

T1 sequence (Q92633 whole entry): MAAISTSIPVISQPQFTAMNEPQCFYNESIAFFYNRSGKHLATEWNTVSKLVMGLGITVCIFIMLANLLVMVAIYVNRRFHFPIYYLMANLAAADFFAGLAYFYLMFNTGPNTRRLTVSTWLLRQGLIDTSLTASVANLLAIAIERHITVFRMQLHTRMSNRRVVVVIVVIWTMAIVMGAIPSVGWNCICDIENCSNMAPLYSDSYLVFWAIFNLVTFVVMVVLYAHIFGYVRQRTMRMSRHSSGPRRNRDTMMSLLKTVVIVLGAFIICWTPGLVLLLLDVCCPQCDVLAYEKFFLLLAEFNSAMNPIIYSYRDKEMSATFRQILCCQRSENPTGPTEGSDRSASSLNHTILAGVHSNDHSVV
Chain of LPA1 (Q92633 whole entry): as above

Row | SMILES | EC50 (LPA1) | EC50 (LPA/S1P GPCR of interest)
1 | Cc1noc(-c2ccc(-c3ccc4c(c3)CCCC4C(=O)O)cc2)c1NC(=O)O[C@H](C)c1ccccc1 (mixture of isomers) [IT038] | > 500 nM | 50 to 500 nM
2 | CCC(C)OC(=O)Nc1c(C)noc1-c1ccc(-c2ccc(Oc3ccccc3C(=O)O)cc2)cc1 (single isomer, unassigned) [IT493] | > 500 nM | 50 to 500 nM
3 | Cc1noc(C#Cc2ccc(NC3(C(=O)O)CC3)cc2)c1NC(=O)O[C@H](C)c1ccccc1 [IT006] | 50 to 500 nM | 50 to 500 nM
4 | C[C@@H](OC(=O)Nc1c(C#Cc2cc3sc(C4(C(=O)OCC(=O)N(C)C)CC4)cc3s2)cnn1C)c1ccccc1 [IT090] | 50 to 500 nM | –
5 | C[C@@H](OC(=O)Nc1c(-c2cc(F)c(-c3ccc(C4(C(=O)O)CC4)cc3)cc2F)oc2ncccc12)c1ccccc1 [IT096] | 50 to 500 nM | < 50 nM
6 | C[C@@H](OC(=O)N(C)c1c(C#Cc2cc3sc(C4(C(=O)O)CC4)cc3s2)cnn1C)c1ccccc1 [IT097] | > 500 nM | –
7 | C[C@@H](OC(=O)Nc1c(CCc2cc3sc(C4(C(=O)O)CC4)cc3s2)cnn1C)c1ccccc1 [IT099] | > 500 nM | –
8 | Cc1c(C#Cc2cnn(C)c2NC(=O)O[C@H](C)c2ccccc2)sc2c(C)c(C3(C(=O)O)CC3)sc12 [IT110] | 50 to 500 nM | < 50 nM
9 | C[C@@H](OC(=O)Nc1cccnc1C#Cc1cc2sc(C3(C(=O)O)CC3)cc2s1)c1ccccc1 [IT115] | > 500 nM | 50 to 500 nM
10 | C[C@@H](OC(=O)Nc1c(C#Cc2cc3sc(C4(C(=O)O)CC4)cc3s2)cnn1C)c1c(F)c(F)c(F)c(F)c1F [IT118] | > 500 nM | > 500 nM
11 | CNS(=O)(=O)c1ccc(-c2ccc(-c3onc(C)c3NC(=O)O[C@H](C)c3ccccc3)cc2)cc1 [IT128] | > 500 nM | > 500 nM
12 | Cc1noc(-c2ccc(-c3ccc(S(N)(=O)=O)cc3)cc2)c1NC(=O)O[C@H](C)c1ccccc1 [IT129] | > 500 nM | 50 to 500 nM
13 | CC(=O)N(C(C)=O)S(=O)(=O)c1ccc(-c2ccc(-c3onc(C)c3NC(=O)O[C@H](C)c3ccccc3)cc2)cc1 [IT130] | > 500 nM | > 500 nM
14 | CC(=O)NS(=O)(=O)c1ccc(-c2ccc(-c3onc(C)c3NC(=O)O[C@H](C)c3ccccc3)cc2)cc1 [IT131] | > 500 nM | 50 to 500 nM
15 | C[C@@H](OC(=O)Nc1c(-c2cc3sc(-c4ccc(CC(=O)O)cc4)cc3s2)cnn1C)c1ccccc1 [IT132] | > 500 nM | 50 to 500 nM
16 | Cc1nsc(-c2cc3sc(-c4ccc(CC(=O)O)cc4)cc3s2)c1NC(=O)O[C@H](C)c1ccccc1 [IT133] | > 500 nM | 50 to 500 nM
17 | C[C@@H](OC(=O)Nc1c(-c2cc3sc(-c4ccc(CC(=O)O)cc4F)cc3s2)cnn1C)c1ccccc1 [IT134] | > 500 nM | 50 to 500 nM
18 | Cc1nsc(-c2cc3sc(-c4ccc(CC(=O)O)cc4F)cc3s2)c1NC(=O)O[C@H](C)c1ccccc1 [IT135] | > 500 nM | 50 to 500 nM
19 | Cc1noc(-c2ccc(-c3ccc(S(=O)(=O)NC(=O)C4CC4)cc3)cc2)c1NC(=O)O[C@H](C)c1ccccc1 [IT138] | 50 to 500 nM | < 50 nM
20 | Cc1noc(-c2ccc(-c3ccc(S(C)(=O)=O)nc3)cc2)c1NC(=O)O[C@H](C)c1ccccc1 [IT139] | 50 to 500 nM | 50 to 500 nM
21 | C[C@@H](OC(=O)Nc1c(-c2cc3sc(-c4ccc(CC(=O)O)cc4Cl)cc3s2)cnn1C)c1ccccc1 [IT140] | > 500 nM | 50 to 500 nM
22 | Cc1nsc(-c2ccc(-c3ccc(CC(=O)O)s3)cc2)c1NC(=O)O[C@H](C)c1ccccc1 [IT141] | > 500 nM | > 500 nM
23 | Cc1nsc(-c2ccc(-c3nnc(CC(=O)O)o3)cc2)c1NC(=O)O[C@H](C)c1ccccc1 [IT142] | > 500 nM | > 500 nM
24 | C[C@@H](OC(=O)Nc1c(-c2cc3sc(C#CC4(C(=O)O)CC4)cc3s2)nnn1C)c1ccccc1 [IT145] | > 500 nM | < 50 nM
25 | C[C@@H](OC(=O)Nc1c(-c2ccc3cc(C#CC4(C(=O)O)CC4)ccc3c2)nnn1C)c1ccccc1 [IT146] | 50 to 500 nM | –

Row | SMILES | EC50 (LPA1) | EC50 (LPA/S1P GPCR of interest)
26 | C[C@@H](OC(=O)Nc1c(-c2cc3sc(-c4ccc(CC(=O)O)s4)cc3s2)cnn1C)c1ccccc1 [IT147] | > 500 nM | 50 to 500 nM
27 | Cc1nsc(-c2cc3sc(-c4ccc(CC(=O)O)s4)cc3s2)c1NC(=O)O[C@H](C)c1ccccc1 [IT148] | > 500 nM | > 500 nM
28 | C[C@@H](OC(=O)Nc1c(-c2cc3sc(-c4ccc(C5(C(=O)O)CC5)cc4)cc3s2)nnn1C)c1ccccc1 [IT149] | 50 to 500 nM | < 50 nM
29 | C[C@@H](OC(=O)Nc1c(-c2ccc(-c3ccc(C(C(=O)O)C4COC4)cc3)cc2)cnn1C)c1ccccc1 (stereo partly shown) [IT150] | 50 to 500 nM | 50 to 500 nM
30 | C[C@@H](OC(=O)Nc1c(-c2ccc(-c3ccc(C(C(=O)O)C4CCC4)cc3)cc2)cnn1C)c1ccccc1 (stereo partly shown) [IT151] | 50 to 500 nM | < 50 nM
31 | Cc1noc(-c2ccc(-c3ccc(S(=O)(=O)N4CCCC4)cc3)cc2)c1NC(=O)O[C@H](C)c1ccccc1 [IT153] | > 500 nM | > 500 nM
32 | Cc1noc(-c2ccc(C#Cc3ccccc3C(=O)O)cc2)c1NC(=O)O[C@H](C)c1ccccc1 [IT154] | > 500 nM | > 500 nM
33 | Cc1nsc(-c2cc3sc(-c4cc(F)c(CC(=O)O)c(F)c4)cc3s2)c1NC(=O)O[C@H](C)c1ccccc1 [IT156] | > 500 nM | 50 to 500 nM
34 | C[C@@H](OC(=O)Nc1c(-c2cc3sc(-c4cc(F)c(CC(=O)O)c(F)c4)cc3s2)cnn1C)c1ccccc1 [IT157] | > 500 nM | 50 to 500 nM
35 | C[C@@H](OC(=O)Nc1c(-c2cc3sc(-c4cc(F)c(CC(=O)O)c(F)c4)cc3s2)nnn1C)c1ccccc1 [IT158] | 50 to 500 nM | 50 to 500 nM
36 | C[C@@H](OC(=O)Nc1c(-c2cc3sc(-c4ccc(CC(=O)O)cc4F)cc3s2)nnn1C)c1ccccc1 [IT159] | > 500 nM | 50 to 500 nM
37 | C[C@@H](OC(=O)Nc1c(-c2cc3sc(-c4ccc(CC(=O)O)cc4)cc3s2)nnn1C)c1ccccc1 [IT160] | 50 to 500 nM | 50 to 500 nM
38 | COc1cc(CC(=O)O)ccc1-c1cc2sc(-c3cnn(C)c3NC(=O)O[C@H](C)c3ccccc3)cc2s1 [IT162] | > 500 nM | > 500 nM
39 | C[C@@H](OC(=O)Nc1c(-c2cc3sc(-c4ccc(CC(=O)O)c(F)c4)cc3s2)cnn1C)c1ccccc1 [IT164] | > 500 nM | < 50 nM
40 | C[C@@H](OC(=O)Nc1c(-c2cc3sc(-c4ccc(CC(=O)O)c(Cl)c4)cc3s2)cnn1C)c1ccccc1 [IT165] | > 500 nM | 50 to 500 nM
41 | C[C@@H](OC(=O)Nc1c(-c2cc3sc(-c4ccc(CC(=O)O)c(Cl)c4)cc3s2)nnn1C)c1ccccc1 [IT166] | > 500 nM | 50 to 500 nM
42 | Cc1nsc(-c2cc3sc(-c4ccc(CC(=O)O)c(Cl)c4)cc3s2)c1NC(=O)O[C@H](C)c1ccccc1 [IT167] | > 500 nM | > 500 nM
43 | C[C@@H](OC(=O)Nc1c(-c2cc3sc(-c4ccc(CC(=O)O)cc4Cl)cc3s2)nnn1C)c1ccccc1 [IT168] | > 500 nM | > 500 nM
44 | Cc1cc(CC(=O)O)ccc1-c1cc2sc(-c3cnn(C)c3NC(=O)O[C@H](C)c3ccccc3)cc2s1 [IT169] | > 500 nM | 50 to 500 nM
45 | Cc1cc(CC(=O)O)ccc1-c1cc2sc(-c3snc(C)c3NC(=O)O[C@H](C)c3ccccc3)cc2s1 [IT170] | > 500 nM | 50 to 500 nM
46 | Cc1cc(CC(=O)O)ccc1-c1cc2sc(-c3nnn(C)c3NC(=O)O[C@H](C)c3ccccc3)cc2s1 [IT171] | > 500 nM | 50 to 500 nM
47 | Cc1noc(-c2ccc(-c3ccc(S(=O)(=O)C4CC4)cc3)cc2)c1NC(=O)O[C@H](C)c1ccccc1 [IT173] | > 500 nM | > 500 nM
48 | Cc1noc(-c2ccc(-c3ccc(S(=O)(=O)CC4CC4)cc3)cc2)c1NC(=O)O[C@H](C)c1ccccc1 [IT174] | > 500 nM | > 500 nM
49 | C[C@@H](OC(=O)Nc1c(-c2ccc(-c3ccc(CC(=O)O)s3)cc2)nnn1C)c1ccccc1 [IT178] | > 500 nM | 50 to 500 nM
